From ChEMBL document CHEMBL1649335, “Discovery of {1-[4-(2-{hexahydropyrrolo[3,4-c]pyrrol-2(1H)-yl}-1H-benzimidazol-1-yl)piperidin-1-yl]cyclooctyl}methanol, systemically potent novel non-peptide agonist of nociceptin/orphanin FQ receptor as analgesic for the treatment of neuropathic pain: design, synthesis, and structure-activity …” (Bioorg Med Chem, 2010)
The source made the active and inactive calls.

How the values were obtained:
[1] = molecular target: Histamine H1 receptor (Cavia porcellus) (UniProt P31389); experiment: Inhibition of guinea pig histamine H1 receptor at 1 uM relative to control
Histamine H1 receptor (Cavia porcellus), sequence (P31389 whole entry): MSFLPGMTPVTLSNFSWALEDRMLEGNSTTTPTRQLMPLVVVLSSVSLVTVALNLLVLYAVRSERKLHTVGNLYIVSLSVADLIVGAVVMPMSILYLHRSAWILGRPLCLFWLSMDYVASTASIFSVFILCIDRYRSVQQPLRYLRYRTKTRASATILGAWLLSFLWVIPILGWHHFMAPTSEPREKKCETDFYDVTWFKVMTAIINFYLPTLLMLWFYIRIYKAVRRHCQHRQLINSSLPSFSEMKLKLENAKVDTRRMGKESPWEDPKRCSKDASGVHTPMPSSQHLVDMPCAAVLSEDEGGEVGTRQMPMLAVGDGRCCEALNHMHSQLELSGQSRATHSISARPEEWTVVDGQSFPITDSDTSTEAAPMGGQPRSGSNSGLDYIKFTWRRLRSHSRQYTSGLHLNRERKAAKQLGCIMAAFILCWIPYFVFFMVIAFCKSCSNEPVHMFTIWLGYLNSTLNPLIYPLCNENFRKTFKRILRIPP

Rattus norvegicus [2] = experiment: Antiallodynic activity against von Frey hair mechanically stimulated neuropathic pain in Sprague-Dawley rat assessed as effect on allodynia in contralateral paw at 1 to 30 mg/kg, sc after 30 mins; format: functional, organism-based
monoamine oxidase B = monoamine oxidase B (Homo sapiens, UniProt P27338); experiment: Inhibition of human monoamine oxidase B at 1 uM relative to control
monoamine oxidase B, sequence (P27338 whole entry): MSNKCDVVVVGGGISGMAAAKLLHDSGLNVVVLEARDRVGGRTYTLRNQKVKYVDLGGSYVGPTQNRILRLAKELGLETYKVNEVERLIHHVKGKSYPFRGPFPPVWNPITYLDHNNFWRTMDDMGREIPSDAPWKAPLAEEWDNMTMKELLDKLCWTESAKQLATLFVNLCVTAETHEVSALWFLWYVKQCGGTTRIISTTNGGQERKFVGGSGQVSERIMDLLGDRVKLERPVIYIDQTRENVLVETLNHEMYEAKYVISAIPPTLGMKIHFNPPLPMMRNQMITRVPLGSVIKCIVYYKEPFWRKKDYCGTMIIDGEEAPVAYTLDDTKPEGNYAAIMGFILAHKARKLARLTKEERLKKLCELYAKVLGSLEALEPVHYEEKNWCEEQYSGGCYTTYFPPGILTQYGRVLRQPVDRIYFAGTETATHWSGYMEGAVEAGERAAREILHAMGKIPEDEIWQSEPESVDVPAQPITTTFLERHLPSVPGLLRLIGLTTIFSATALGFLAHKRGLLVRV

Rattus norvegicus [3] = experiment: Antiallodynic activity against von Frey hair mechanically stimulated neuropathic pain in Sprague-Dawley rat assessed as effect on allodynia in contralateral paw at 1 to 30 mg/kg, sc after 4 hrs; format: functional, organism-based
Rattus norvegicus [4] = species: Rattus norvegicus; experiment: Inhibition of rat thyroid hormone receptor at 1 uM relative to control
Rattus norvegicus [5] = species: Rattus norvegicus; experiment: Inhibition of rat glycine receptor at 1 uM relative to control
Rattus norvegicus [6] = species: Rattus norvegicus; experiment: Inhibition of rat sigma receptor at 1 uM relative to control
Rattus norvegicus [7] = experiment: Antiallodynic activity against von Frey hair mechanically stimulated neuropathic pain in Sprague-Dawley rat assessed as increase of response threshold per site at 5.5 to 170 nmol/site, icv after 1 hr; format: functional, organism-based
[8] = molecular target: Adrenergic receptor alpha-2 (Rattus norvegicus) (UniProt P22086+P19328+P22909); experiment: Inhibition of rat alpha2 adrenoceptor at 1 uM relative to control
[9] = molecular target: Muscarinic acetylcholine receptor M2 (Homo sapiens) (UniProt P08172); experiment: Inhibition of human muscarinic M2 receptor at 1 uM relative to control
[10] = molecular target: Small conductance calcium-activated potassium channel protein 1 (Rattus norvegicus) (UniProt P70606); experiment: Inhibition of rat SKCa channel at 1 uM relative to control
Small conductance calcium-activated potassium channel protein 1 (Rattus norvegicus), sequence (P70606 whole entry): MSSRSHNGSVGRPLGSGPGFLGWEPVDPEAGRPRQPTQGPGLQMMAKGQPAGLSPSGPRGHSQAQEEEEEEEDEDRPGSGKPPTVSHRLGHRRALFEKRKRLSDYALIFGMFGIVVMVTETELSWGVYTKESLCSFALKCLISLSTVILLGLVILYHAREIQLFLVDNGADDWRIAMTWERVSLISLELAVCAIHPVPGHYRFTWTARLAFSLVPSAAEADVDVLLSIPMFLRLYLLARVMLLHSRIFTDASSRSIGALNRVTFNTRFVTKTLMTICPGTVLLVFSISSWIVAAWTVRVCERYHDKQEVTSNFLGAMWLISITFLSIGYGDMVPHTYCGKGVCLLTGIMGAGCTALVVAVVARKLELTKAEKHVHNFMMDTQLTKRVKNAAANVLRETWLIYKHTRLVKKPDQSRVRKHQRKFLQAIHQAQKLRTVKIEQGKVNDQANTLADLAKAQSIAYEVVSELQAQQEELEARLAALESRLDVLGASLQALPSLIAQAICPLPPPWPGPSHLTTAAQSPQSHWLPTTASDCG

Rattus norvegicus [11] = experiment: Antiallodynic activity against von Frey hair mechanically stimulated neuropathic pain in sc dosed Sprague-Dawley rat assessed as increase of response threshold after 4 hrs; format: functional
Rattus norvegicus [12] = experiment: Antiallodynic activity against von Frey hair mechanically stimulated neuropathic pain in sc dosed Sprague-Dawley rat assessed as assessed as minimum effective dose to increase of response threshold after 2 hrs; format: functional
[13] = Drug level Sprague-Dawley rat brain at 10 mg/kg, sc after 0.5 hrs; format: ADME, organism-based; parameters: dose 10 mg/kg, route subcutaneous; settings: read-out: Drug uptake
Rattus norvegicus [14] = experiment: Toxicity in von Frey hair mechanically stimulated neuropathic pain Sprague-Dawley rat model assessed as sedation effect at up to 170 nmol/site, administered intrathecally; format: organism-based; settings: in vivo, icv_or_intrathecal
Rattus norvegicus [15] = experiment: Antiallodynic activity against von Frey hair mechanically stimulated neuropathic pain in icv dosed Sprague-Dawley rat assessed as assessed as minimum effective dose to increase of response threshold per site after 20 mins; format: functional
[16] = molecular target: D(1A) dopamine receptor (Homo sapiens) (UniProt P21728); experiment: Inhibition of human dopamine D1 receptor at 1 uM relative to control
Rattus norvegicus [17] = experiment: Antiallodynic activity against von Frey hair mechanically stimulated neuropathic pain in Sprague-Dawley rat assessed as increase of response threshold per site at 170 nmol/site administered intrathecally after 1 hr relative to control; format: functional
[18] = molecular target: Acetylcholinesterase (Homo sapiens) (UniProt P22303); experiment: Inhibition of human acetylcholine esterase at 1 uM relative to control
Acetylcholinesterase (Homo sapiens), sequence (P22303 whole entry): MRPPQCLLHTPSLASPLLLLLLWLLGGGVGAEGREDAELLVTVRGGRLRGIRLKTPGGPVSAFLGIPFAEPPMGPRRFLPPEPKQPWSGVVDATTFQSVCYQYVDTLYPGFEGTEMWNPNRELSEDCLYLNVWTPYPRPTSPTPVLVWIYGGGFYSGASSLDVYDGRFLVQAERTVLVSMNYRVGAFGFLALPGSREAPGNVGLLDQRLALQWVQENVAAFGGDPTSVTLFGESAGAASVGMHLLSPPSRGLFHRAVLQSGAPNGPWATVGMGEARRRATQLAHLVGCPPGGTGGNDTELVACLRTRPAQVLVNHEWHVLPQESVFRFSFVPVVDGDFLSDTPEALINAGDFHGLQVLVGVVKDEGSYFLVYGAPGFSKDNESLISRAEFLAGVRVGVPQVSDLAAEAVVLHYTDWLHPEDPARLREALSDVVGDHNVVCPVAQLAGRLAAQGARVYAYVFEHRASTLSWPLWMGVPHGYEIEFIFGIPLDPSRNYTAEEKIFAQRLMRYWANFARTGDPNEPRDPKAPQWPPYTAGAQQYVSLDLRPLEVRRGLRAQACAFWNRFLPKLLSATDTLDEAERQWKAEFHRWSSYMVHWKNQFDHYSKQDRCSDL

[19] = molecular target: Histamine H3 receptor (Rattus norvegicus) (UniProt Q9QYN8); experiment: Inhibition of rat histamine H3 receptor at 1 uM relative to control
Histamine H3 receptor (Rattus norvegicus), sequence (Q9QYN8 whole entry): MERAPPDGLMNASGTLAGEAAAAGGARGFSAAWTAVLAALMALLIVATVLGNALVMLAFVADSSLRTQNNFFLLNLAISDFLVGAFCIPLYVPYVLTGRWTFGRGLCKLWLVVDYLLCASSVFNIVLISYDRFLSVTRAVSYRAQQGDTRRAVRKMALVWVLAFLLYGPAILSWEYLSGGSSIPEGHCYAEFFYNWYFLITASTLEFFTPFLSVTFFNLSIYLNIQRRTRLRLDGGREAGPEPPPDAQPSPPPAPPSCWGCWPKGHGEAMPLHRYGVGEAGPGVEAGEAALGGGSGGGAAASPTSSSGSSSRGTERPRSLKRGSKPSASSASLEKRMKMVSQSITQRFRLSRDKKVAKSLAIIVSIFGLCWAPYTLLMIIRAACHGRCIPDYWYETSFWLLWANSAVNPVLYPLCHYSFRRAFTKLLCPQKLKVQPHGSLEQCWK

Nociceptin receptor = Nociceptin receptor (Homo sapiens, UniProt P41146)
Nociceptin receptor, sequence (P41146 whole entry): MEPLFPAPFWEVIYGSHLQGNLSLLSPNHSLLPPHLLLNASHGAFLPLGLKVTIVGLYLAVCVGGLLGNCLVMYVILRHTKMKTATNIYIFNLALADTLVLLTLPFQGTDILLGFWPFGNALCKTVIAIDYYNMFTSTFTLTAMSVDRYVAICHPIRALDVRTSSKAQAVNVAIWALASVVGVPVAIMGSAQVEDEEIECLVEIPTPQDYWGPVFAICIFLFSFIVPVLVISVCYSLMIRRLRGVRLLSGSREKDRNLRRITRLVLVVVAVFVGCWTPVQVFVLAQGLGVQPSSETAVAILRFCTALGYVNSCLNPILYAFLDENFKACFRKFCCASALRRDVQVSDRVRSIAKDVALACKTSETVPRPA

[20] = Drug level Sprague-Dawley rat spinal cord at 10 mg/kg, sc after 0.5 hrs; format: ADME, organism-based; parameters: dose 10 mg/kg, route subcutaneous; settings: read-out: Drug uptake
Rattus norvegicus [21] = experiment: Antiallodynic activity against von Frey hair mechanically stimulated neuropathic pain in Sprague-Dawley rat assessed as increase of response threshold per site at 55 nmol/site administered intrathecally after 20 mins relative to control; format: functional
[22] = molecular target: Sodium-dependent dopamine transporter (Homo sapiens) (UniProt Q01959); experiment: Inhibition of human dopamine transporter at 1 uM relative to control
Sodium-dependent dopamine transporter (Homo sapiens), sequence (Q01959 whole entry): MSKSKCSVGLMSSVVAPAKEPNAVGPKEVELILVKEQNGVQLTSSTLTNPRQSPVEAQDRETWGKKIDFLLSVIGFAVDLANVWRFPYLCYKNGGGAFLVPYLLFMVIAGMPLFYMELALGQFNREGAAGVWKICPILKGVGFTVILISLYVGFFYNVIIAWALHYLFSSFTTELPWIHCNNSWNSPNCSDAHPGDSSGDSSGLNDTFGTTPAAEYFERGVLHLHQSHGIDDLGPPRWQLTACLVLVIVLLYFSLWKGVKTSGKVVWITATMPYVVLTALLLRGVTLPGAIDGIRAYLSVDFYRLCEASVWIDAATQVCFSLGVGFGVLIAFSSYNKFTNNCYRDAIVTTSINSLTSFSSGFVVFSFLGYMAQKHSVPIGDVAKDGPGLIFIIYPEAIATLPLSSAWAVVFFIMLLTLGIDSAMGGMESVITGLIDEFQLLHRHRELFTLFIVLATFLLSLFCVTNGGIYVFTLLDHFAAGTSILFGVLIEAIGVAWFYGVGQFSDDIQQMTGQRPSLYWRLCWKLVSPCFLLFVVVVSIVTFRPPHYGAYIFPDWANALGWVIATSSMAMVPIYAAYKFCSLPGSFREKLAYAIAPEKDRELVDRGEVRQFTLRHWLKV

Rattus norvegicus [23] = experiment: Toxicity in von Frey hair mechanically stimulated neuropathic pain Sprague-Dawley rat model assessed as sedation effect at up to 170 nmol/site, icv; format: organism-based; settings: in vivo, icv_or_intrathecal
Rattus norvegicus [24] = experiment: Antiallodynic activity against von Frey hair mechanically stimulated neuropathic pain in Sprague-Dawley rat assessed as increase of response threshold at 30 mg/kg, sc after 1 hr relative to control; format: functional; settings: route subcutaneous
[25] = molecular target: Tyrosine 3-monooxygenase (Rattus norvegicus) (UniProt P04177); experiment: Inhibition of rat tyrosine hydroxylase at 1 uM relative to control
Tyrosine 3-monooxygenase (Rattus norvegicus), sequence (P04177 whole entry): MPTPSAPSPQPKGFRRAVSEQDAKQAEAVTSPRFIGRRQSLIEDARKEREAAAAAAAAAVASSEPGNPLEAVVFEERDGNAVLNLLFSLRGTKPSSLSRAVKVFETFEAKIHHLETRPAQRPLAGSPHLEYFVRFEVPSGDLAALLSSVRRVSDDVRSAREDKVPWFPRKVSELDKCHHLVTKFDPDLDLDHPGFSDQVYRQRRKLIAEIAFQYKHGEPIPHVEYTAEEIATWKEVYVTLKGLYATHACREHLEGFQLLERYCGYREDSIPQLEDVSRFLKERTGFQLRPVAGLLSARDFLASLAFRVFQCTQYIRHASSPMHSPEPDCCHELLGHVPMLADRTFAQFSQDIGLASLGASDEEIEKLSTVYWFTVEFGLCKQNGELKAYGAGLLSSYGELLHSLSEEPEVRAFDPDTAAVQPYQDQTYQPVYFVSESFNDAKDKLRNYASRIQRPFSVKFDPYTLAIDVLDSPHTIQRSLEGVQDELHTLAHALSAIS

Rattus norvegicus [26] = species: Rattus norvegicus; experiment: Inhibition of rat GABA transporter at 1 uM relative to control
Rattus norvegicus [27] = species: Rattus norvegicus; experiment: Inhibition of rat 5-HT receptor at 1 uM relative to control
[28] = molecular target: Substance-P receptor (Homo sapiens) (UniProt P25103); experiment: Inhibition of human tachykinin NK1 receptor at 1 uM relative to control
Substance-P receptor (Homo sapiens), sequence (P25103 whole entry): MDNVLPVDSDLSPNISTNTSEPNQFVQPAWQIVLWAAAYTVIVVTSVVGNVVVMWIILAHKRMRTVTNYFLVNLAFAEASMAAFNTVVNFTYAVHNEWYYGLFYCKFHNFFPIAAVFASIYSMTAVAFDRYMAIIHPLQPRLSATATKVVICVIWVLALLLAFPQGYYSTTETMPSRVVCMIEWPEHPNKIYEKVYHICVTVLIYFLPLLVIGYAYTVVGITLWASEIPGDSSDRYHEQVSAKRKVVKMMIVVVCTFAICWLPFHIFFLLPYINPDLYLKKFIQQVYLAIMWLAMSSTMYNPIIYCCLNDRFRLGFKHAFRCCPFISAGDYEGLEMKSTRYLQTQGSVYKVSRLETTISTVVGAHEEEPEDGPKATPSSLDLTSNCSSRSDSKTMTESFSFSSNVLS

[29] = molecular target: L-type calcium channel, diltiazem site (Rattus norvegicus, UniProt P22002+P27732+Q02485); experiment: Inhibition of rat L-type calcium channel diltiazem site at 1 uM relative to control
Rattus norvegicus [30] = species: Rattus norvegicus; experiment: Inhibition of rat central benzodiazepine receptor at 1 uM relative to control
Rattus norvegicus [31] = experiment: Antiallodynic activity against von Frey hair mechanically stimulated neuropathic pain in sc dosed Sprague-Dawley rat assessed as assessed as minimum effective dose to increase of response threshold after 30 mins; format: functional
Rattus norvegicus [32] = experiment: Antiallodynic activity against von Frey hair mechanically stimulated neuropathic pain in Sprague-Dawley rat assessed as increase of response threshold per site at 55 nmol/site, icv after 20 mins relative to control; format: functional
Rattus norvegicus [33] = species: Rattus norvegicus; experiment: Inhibition of rat K+ATP channel at 1 uM relative to control
Rattus norvegicus [34] = experiment: Antiallodynic activity against von Frey hair mechanically stimulated neuropathic pain in Sprague-Dawley rat assessed as increase of response threshold per site at 55 nmol/site administered intrathecally after 1 hr relative to control; format: functional
Rattus norvegicus [35] = species: Rattus norvegicus; experiment: Inhibition of rat GABA receptor at 1 uM relative to control
Rattus norvegicus [36] = experiment: Antiallodynic activity against von Frey hair mechanically stimulated neuropathic pain in sc dosed Sprague-Dawley rat assessed as increase of response threshold after 2 hrs; format: functional
[37] = molecular target: Vasopressin V1a receptor (Homo sapiens) (UniProt P37288); experiment: Inhibition of human vasopressin V1A receptor at 1 uM relative to control
Rattus norvegicus [38] = species: Rattus norvegicus; experiment: Inhibition of rat phospholipase C at 1 uM relative to control
[39] = molecular target: Adenosine receptor A2a (Homo sapiens) (UniProt P29274); experiment: Inhibition of human adenosine A2A receptor at 1 uM relative to control
Adenosine receptor A2a (Homo sapiens), sequence (P29274 whole entry): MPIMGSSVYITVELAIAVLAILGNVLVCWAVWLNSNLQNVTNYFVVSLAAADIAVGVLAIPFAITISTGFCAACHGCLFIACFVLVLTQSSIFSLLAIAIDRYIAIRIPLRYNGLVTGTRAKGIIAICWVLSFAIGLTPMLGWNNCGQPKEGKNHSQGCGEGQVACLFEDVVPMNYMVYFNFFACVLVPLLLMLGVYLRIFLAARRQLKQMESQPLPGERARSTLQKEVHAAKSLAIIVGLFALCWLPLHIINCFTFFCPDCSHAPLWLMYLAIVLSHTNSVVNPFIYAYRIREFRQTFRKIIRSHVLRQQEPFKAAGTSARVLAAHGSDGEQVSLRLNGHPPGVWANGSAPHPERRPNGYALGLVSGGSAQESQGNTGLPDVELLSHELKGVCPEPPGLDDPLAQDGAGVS

Rattus norvegicus [40] = experiment: Antiallodynic activity against von Frey hair mechanically stimulated neuropathic pain in sc dosed Sprague-Dawley rat assessed as assessed as minimum effective dose to increase of response threshold after 4 hrs; format: functional, organism-based
Rattus norvegicus [41] = experiment: Antiallodynic activity against von Frey hair mechanically stimulated neuropathic pain in Sprague-Dawley rat assessed as assessed as minimum effective dose to increase of response threshold per site at 5.5 to 170 nmol/site, icv after 1 hr; format: functional, organism-based
Rattus norvegicus [42] = experiment: Antiallodynic activity against von Frey hair mechanically stimulated neuropathic pain in sc dosed Sprague-Dawley rat assessed as increase of response threshold after 1 hr; format: functional

Which results are given for `OCC1(N2CCC(n3c(N4CC5CNCC5C4)nc4ccccc43)CC2)CCCCCCC1` (centres undefined)?
inhibition [1]: < 10%; Activity (Rattus norvegicus [2]): inactive; inhibition at 1 µM (monoamine oxidase B): < 10%; Activity (Rattus norvegicus [3]): inactive; inhibition (Rattus norvegicus [4]): < 10%; inhibition (Rattus norvegicus [5]): < 10%; inhibition (Rattus norvegicus [6]): 10%; ED50 (Rattus norvegicus [7]): inactive; inhibition [8]: < 10%; inhibition [9]: 19%; inhibition [10]: < 10%; ED50 (Rattus norvegicus [11]): > 30 mg/kg; MED (Rattus norvegicus [12]): 30 mg/kg; concentration at 0.5 h [13]: 152 ng/mL; Activity (Rattus norvegicus [14]): Non-toxic; MED (Rattus norvegicus [15]): 55 nmol; inhibition [16]: < 10%; Activity (Rattus norvegicus [17]): 45.5%; inhibition [18]: < 10%; inhibition [19]: < 10%; EC50 (Nociceptin receptor): 12 nM; concentration at 0.5 h [20]: 48 ng/mL; Activity (Rattus norvegicus [21]): 49.4%; inhibition [22]: < 10%; Activity (Rattus norvegicus [23]): Non-toxic; Activity (Rattus norvegicus [24]): 79.3%; inhibition [25]: < 10%; inhibition (Rattus norvegicus [26]): 24%; inhibition (Rattus norvegicus [27]): < 10%; inhibition [28]: < 10%; inhibition at 1 µM [29]: 18%; inhibition (Rattus norvegicus [30]): < 10%; MED (Rattus norvegicus [31]): 30 mg/kg; Activity (Rattus norvegicus [32]): 23.7%; inhibition (Rattus norvegicus [33]): < 10%; Activity (Rattus norvegicus [34]): 31.1%; inhibition (Rattus norvegicus [35]): < 10%; ED50 (Rattus norvegicus [36]): > 30 mg/kg; inhibition [37]: < 10%; inhibition (Rattus norvegicus [38]): < 10%; inhibition [39]: < 10%; MED (Rattus norvegicus [40]): inactive; MED (Rattus norvegicus [41]): inactive; ED50 (Rattus norvegicus [42]): 10.8 mg/kg
